Experimental data: ChEMBL document CHEMBL1152340, “Flavonoid glucuronides and a chromone from the aquatic macrophyte Stratiotes aloides” (2009)
Calls of active or inactive are those of the source. No cut-off for these calls is given here.

Tests used:
SH-SY5Y [1] = assay: Cytotoxicity against human SH-SY5Y cells at 10 uM after 4 days by DAPI staining method; type: functional
SH-SY5Y [2] = assay: Cytotoxicity against human SH-SY5Y cells at 50 uM after 4 days by DAPI staining method; type: functional
SH-SY5Y [3] = assay: Induction of apoptosis in human SH-SY5Y cells assessed as DNA fragmentation at 50 uM after 4 days by Hoechst 33342 method; type: functional, cell-based
[4] = Cytotoxicity against human PA-TU-8902 cells at 50 uM after 4 days by DAPI staining method relative to control; type: functional
SH-SY5Y [5] = assay: Cytotoxicity against human SH-SY5Y cells after 4 days by DAPI staining method; type: functional, cell-based

O=C(O)[C@H]1O[C@@H](O[C@H]2[C@H](Oc3cc(O)c4c(=O)cc(-c5ccc(O)c(O)c5)oc4c3)O[C@H](CO)[C@@H](O)[C@@H]2O)[C@H](O)[C@@H](O)[C@@H]1O
Activity (SH-SY5Y [1]): 75%
Activity (SH-SY5Y [2]): 75%
Activity (SH-SY5Y [3]): Active
Activity [4]: 20%
Activity (SH-SY5Y [5]): Dose-dependent effect
